Molecular target: Cut2 (cutinase 2) (Pyricularia oryzae, UniProt G4MZV6)
Details: 12.5 nM Cut2, 0-8 mM substrate; assay buffer 25 mM NaH2PO4, pH 7.2

Cut2 (cutinase 2), sequence (G4MZV6 19-214 limits assumed): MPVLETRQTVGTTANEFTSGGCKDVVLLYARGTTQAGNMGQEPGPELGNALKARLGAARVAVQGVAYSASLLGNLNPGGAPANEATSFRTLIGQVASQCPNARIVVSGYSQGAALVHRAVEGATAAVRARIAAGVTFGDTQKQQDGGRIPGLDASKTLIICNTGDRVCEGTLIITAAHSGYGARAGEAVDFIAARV

`CCCC(=O)Oc1ccc([N+](=O)[O-])cc1` [p-nitrophenyl butyrate] was tested, and the kcat/Km was “We determined kcat/Km for our recombinant Cut2 with p-nitrophenylbutyrate as substrate”.

Source: PMC4855151 (Scientific Reports, 2016)
